Series [1] has as its target T1, aldehyde dehydrogenase 2 (ALDH2) (Homo sapiens, UniProt P05091).
T1 construct: purchased ATGen Inc
T1 sequence (P05091 18-517): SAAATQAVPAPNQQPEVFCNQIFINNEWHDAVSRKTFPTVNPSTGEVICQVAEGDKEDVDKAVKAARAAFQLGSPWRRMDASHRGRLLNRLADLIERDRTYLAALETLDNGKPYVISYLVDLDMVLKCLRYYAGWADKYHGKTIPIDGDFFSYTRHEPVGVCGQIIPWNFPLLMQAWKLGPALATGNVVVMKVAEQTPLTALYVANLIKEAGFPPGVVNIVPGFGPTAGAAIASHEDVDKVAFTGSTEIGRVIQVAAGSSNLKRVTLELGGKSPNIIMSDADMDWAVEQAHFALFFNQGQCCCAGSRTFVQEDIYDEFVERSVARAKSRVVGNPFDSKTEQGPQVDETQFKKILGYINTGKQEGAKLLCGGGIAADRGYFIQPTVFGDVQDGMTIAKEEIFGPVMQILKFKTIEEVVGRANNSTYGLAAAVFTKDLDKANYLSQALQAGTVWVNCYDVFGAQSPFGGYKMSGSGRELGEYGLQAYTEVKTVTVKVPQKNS
Briefly: Effects of compounds on the acetaldehyde oxidation rate by ALDH2 (PicoProbe Aldehyde dehydrogenase Activity Assay Kit). It counts as biochemical. The following applies: read-out: acetaldehyde oxidation rate (rate in the absence of the compounds = 100); for activity at 1 µM: compound concentration 1 μM; for activity at 10 µM: compound concentration 10 μM. The protocol:
(Effects of Compounds on the Acetaldehyde Oxidation Rate by Aldehyde Dehydrogenase 2 (ALDH2))
Effects of compounds on the acetaldehyde oxidation rate by aldehyde dehydrogenase 2 (ALDH2) were evaluated using a method known in the art. Specifically, the test was performed using a commercially available kit, PicoProbe™ Aldehyde dehydrogenase Activity Assay Kit (from BioVision Inc.) in accordance with the product's instruction. Reagents as described below were sequentially added to each well in a 384-well plate with a pipette.
1. 10 μL of the commercially available ALDH2 enzyme (from ATGen Inc.) dissolved in ALDH assay Buffer so as to obtain a concentration of 1 μg/mL.
2. 10 μL, of 30 μM or 3 μM compound solution (containing 3% DMSO) prepared with ALDH assay Buffer
3. […] of Reaction mix consisting of 7.82 μL of ALDH assay Buffer, 0.55 μL of PicoProbe, 0.27 μL of Substrate Mix, and 1.36 μL of Acetaldehyde
Before addition of 3, the plate was incubated at room temperature for 5 minutes. After addition of 3, fluorescence was determined using EnVision 2101 Multilabel Reader (from PerkinElmer Inc.) at room, temperature over 60 minutes. The measurements were taken at interval of 2 minutes.
Fluorescence was detected at an excitation wavelength of 535 nm and an emission wavelength of587 nm.
Table 1 lists the oxidation rates when the compounds are added, in which the rates are calculated on the basis of the assumption that the acetaldehyde oxidation rates in the absence of the compounds are 100. The rate for Comparative Example 1 compound was normalized to a value of “175” for 10 μM of the compound concentration while the rate for Comparative Example 1 compound was normalized to a value of “137” for 1 μM of the compound concentration.

The procedure of series [2]:
(Comparison of Amounts of Produced Reactive Metabolites)
Ability of compounds to produce reactive metabolites was evaluated, using the method as described below. Cytochrome P450 (CYP) dependent metabolism was initiated, by adding 1 mg/mL human liver microsome, 0.2 mmol/L compound, and 0.1 mmol/L RI-labeled capture agent, and lastly 1 mmol/L NADPH to 100 mM phosphate buffer (pH 7.4). After incubation at 37° C. for 60 minutes, the reaction mixture (0.1 mL) and an equal volume of acetonitrile were added to stop the metabolic reaction. After 0.8 mL of water was added to the supernatant from centrifugation, 0.5 mL of the resulting solution was injected into HPLC connected to a radio detector and a covalent complex between the reactive metabolite and Relabeled capture agent was quantitatively analyzed for its RI intensity.

Series [3] relates to mechanical allodynia induced by carrageenan in C57 BL/6J mice. Briefly: Suppressive effect of pain induced by carrageenan (von Frey withdrawal score). It is filed as in vivo, mouse. The following applies: mean ± S.E. The protocol:
(Suppressive Effect of Pain Induced by Carrageenan)
This experiment was earned out with reference to Science Translational Medicine 6, 251 r118 (2014). Male C57 BL/6J mice (Charles River Japan) of 7-week-old were used. Carrageenan was subcutaneously administered to the mouse by intraplantar injection of the left hind paw to induce mechanical allodynia in the footpad. Mechanical stimulus-evoked withdrawal response at 180 min after the induction was assessed by applying a von Frey filament (ascending bending force 0.16 g) to the footpad, of the hind paw. The filament was perpendicularly applied to the footpad so that the filament was bent for 6 second. The withdrawal response was scored in three stages (0: no response or startle response (moving paw without lifting); 1: lifting of paw; 2: licking or shaking of paw). The mouse was stimulated ten times and the sum of the scores of the ten stimulation (withdrawal score) was calculated.
The compound of Example 1 was dissolved in DMSO/5% glucose solution for injection (1:1 by volume ratio). […]
Wilcoxon rank sum test was used to compare the vehicle-treated group and the Example 1-treated group. The significance level was calculated as 5%, divided into less than 5% (p<0.05) and less than 1% (p<0.01). […]

The structures appear in SMILES notation.

These results are taken from patent publication US10406126B2, “ALDH2 activator” (Eisai R&D Management Co., Ltd., priority 2018, dated 2019).

In the case of `COCc1ccc(CNC(=O)c2c(Cl)cccc2Cl)cc1C` [Example 4, 2,6-Dichloro-N-{[4-(methoxymethyl)-3-methylphenyl]methyl}benzamide], in series [1], the activity at 1 µM stood at 136% and the activity at 10 µM was 175%.

`O=C(NCc1ccc2c(c1)OCO2)c1c(Cl)cccc1Cl` [Comparative Example 1, N-[(2H-1,3-Benzodioxol-5-yl)methyl]-2,6-dichlorobenzamide, reference compound]: in series [2], the “amount of reactive metabolites produced, in words” value was “produces reactive metabolites as much as clozapine”. For the same molecule, in series [1], the activity at 1 µM is 137% and the activity at 10 µM is 175%.

Regarding `COCc1ccc(CNC(=O)c2ccccc2Br)cc1F` [Example 7, 2-Bromo-N-{[3-fluoro-4-(methoxymethyl)phenyl]methyl}benzamide], in series [1], the activity at 1 µM turned out to be 119% and the activity at 10 µM came to 156%.

Take `COCc1ccc(CNC(=O)c2c(F)cccc2F)cc1F` [Example 13, 2,6-Difluoro-N-{[3-fluoro-4-(methoxymethyl)phenyl]methyl}benzamide]: in series [1], the activity at 1 µM was determined as 114% and the activity at 10 µM amounted to 143%.

Take `COCc1ccc(CNC(=O)c2ccccc2Cl)cc1F` [Example 6, 2-Chloro-N-{[3-fluoro-4-(methoxymethyl)phenyl]methyl}benzamide]: in series [1], the activity at 1 µM was determined as 108% and the activity at 10 µM was 148%.

`O=C(NCc1ccc2c(c1)OCCO2)c1c(Cl)cccc1Cl` [Comparative Example 2, 2,6-dichloro-N-[(2,3-dihydro-1,4-benzodioxin-6-yl)methyl]benzamide, reference compound]: in series [1], the activity at 1 µM was found to be 125% and the activity at 10 µM is 164%.

As to `COCc1ccc(CNC(=O)c2c(F)cccc2Br)cc1F` [Example 8, 2-Bromo-6-fluoro-N-{[3-fluoro-4-(methoxymethyl)phenyl]methyl}benzamide], in series [1], the activity at 1 µM is 128% and the activity at 10 µM worked out at 165%.

As to `COCc1ccc(CNC(=O)c2c(Cl)cccc2Cl)cc1F` [Example 1, 2,6-Dichloro-N-{[3-fluoro-4-(methoxymethyl)phenyl]methyl}benzamide], in series [1], the activity at 1 µM was found to be 138% and the activity at 10 µM was 179%. Moreover, in series [3] (180 min after carrageenan induction, 12 mg/kg s.c. three times, **p < 0.01 vs vehicle), the “Total pain-related score (withdrawal score)” value is given as 6.8 ± 1.0**. The “Total pain-related score (withdrawal score)” value in series [3] (Pre: before carrageenan induction) is listed as 1.6 ± 0.2.

For `COCc1ccc(CNC(=O)c2c(C)cccc2C)cc1F` [Example 11, N-{[3-Fluoro-4-(methoxymethyl)phenyl]methyl}-2,6-dimethylbenzamide], in series [1], the activity at 1 µM amounted to 117% and the activity at 10 µM was found to be 156%.

As for `COCc1ccc(CNC(=O)c2c(Cl)cccc2Cl)cc1` [Example 3, 2,6-Dichloro-N-[4-(methoxymethyl)benzyl]benzamide], in series [1], the activity at 1 µM stood at 117% and the activity at 10 µM came out at 156%.

`COCc1cc(F)c(CNC(=O)c2c(Cl)cccc2Cl)cc1F` [Example 2, 2,6-Dichloro-N-{[3,6-difluoro-4-(methoxymethyl)phenyl]methyl}benzamide]: in series [1], the activity at 1 µM worked out at 125% and the activity at 10 µM stood at 168%.

Take `COCc1ccc(CNC(=O)c2c(Cl)cccc2Br)cc1F` [Example 5, 2-Bromo-6-chloro-N-{[3-fluoro-4-(methoxymethyl)phenyl]methyl}benzamide]: in series [1], the activity at 1 µM is 129% and the activity at 10 µM is 168%.

Consider `COCc1ccc(CNC(=O)c2c(Cl)cccc2C(C)C)cc1F` [Example 12, 2-Chloro-N-[3-fluoro-4-(methoxymethyl)benzyl]-6-isopropylbenzamide], for which, in series [1], the activity at 1 µM is 136% and the activity at 10 µM is 175%.

On to `COCc1ccc(CNC(=O)c2c(F)cccc2Cl)cc1F` [Example 10, 2-Chloro-6-fluoro-N-{[3-fluoro-4-(methoxymethyl)phenyl]methyl}benzamide], for which, in series [1], the activity at 1 µM came out at 125% and the activity at 10 µM was determined as 168%.
